These results are taken from BindingDB's records for doi:10.1021/jm061152t (Abbott Laboratories, 2007).

Each structure is given as a SMILES string. “And” between values parts separate entries of the source, which are not always exact repeats. Identical values can stand only once.

The term EC50 denotes the concentration at which the effect is half-maximal.

Test [1] in a line: The binding affinities (Ki) of compounds were determined using fluorescence polarization assays (FPA) that measure their ability to competitively displace a Bad-derived peptide from Bcl-xL. IC50 values were binding affinities measured in the presence of 10% human serum. Compound efficacy (EC50) in a cellular co. The settings on record: pH 7.4. (Fluorescence polarisation rises when a labelled molecule tumbles more slowly, as on binding a larger partner.)

The nature of test [2]: The binding affinities (Ki) of compounds were determined using fluorescence polarization assays (FPA) that measure their ability to competitively displace a Bad-derived peptide from Bcl-xL. Compound efficacy (EC50) in a cellular context was evaluated by testing their ability to reverse the protection from cytokine w.

In the case of `CN(C)CC[C@H](CSc1ccccc1)Nc1ccc(S(=O)(=O)NC(=O)c2ccc(N3CCC(=Cc4ccccc4C(F)(F)F)CC3)cc2)cc1[N+](=O)[O-]` [N-[(4-{[(2R)-4-(dimethylamino)-1-(phenylsulfanyl)butan-2-yl]amino}-3-nitrobenzene)sulfonyl]-4-(4-{[2-(trifluoromethyl)phenyl]methylidene}piperidin-1-yl)benzamide], the results for the EC50 in test [1] and in test [2] were 150 nM and 210 nM, respectively.

For `COC1(Cc2ccc(Cl)cc2)CCN(c2ccc(C(=O)NS(=O)(=O)c3ccc(N[C@H](CCN(C)C)CSc4ccccc4)c([N+](=O)[O-])c3)cc2)CC1` [4-{4-[(4-chlorophenyl)methyl]-4-methoxypiperidin-1-yl}-N-[(4-{[(2R)-4-(dimethylamino)-1-(phenylsulfanyl)butan-2-yl]amino}-3-nitrobenzene)sulfonyl]benzamide], the values for the EC50 in test [1] and in test [2] were 400 nM and 500 nM, respectively.

Turning to `COC1(Cc2cccc(Cl)c2)CCN(c2ccc(C(=O)NS(=O)(=O)c3ccc(N[C@H](CCN(C)C)CSc4ccccc4)c([N+](=O)[O-])c3)cc2)CC1` [4-{4-[(3-chlorophenyl)methyl]-4-methoxypiperidin-1-yl}-N-[(4-{[(2R)-4-(dimethylamino)-1-(phenylsulfanyl)butan-2-yl]amino}-3-nitrobenzene)sulfonyl]benzamide], the EC50 in test [1] amounted to 250 nM; in test [2], 300 nM.

As for `COC1(Cc2ccccc2Br)CCN(c2ccc(C(=O)NS(=O)(=O)c3ccc(N[C@H](CCN(C)C)CSc4ccccc4)c([N+](=O)[O-])c3)cc2)CC1` [4-{4-[(2-bromophenyl)methyl]-4-methoxypiperidin-1-yl}-N-[(4-{[(2R)-4-(dimethylamino)-1-(phenylsulfanyl)butan-2-yl]amino}-3-nitrobenzene)sulfonyl]benzamide], the EC50 in test [1] is 100 nM; in test [2], 200 nM.

As to `COC1(CC2CCCCC2)CCN(c2ccc(C(=O)NS(=O)(=O)c3ccc(N[C@H](CCN(C)C)CSc4ccccc4)c([N+](=O)[O-])c3)cc2)CC1` [4-[4-(cyclohexylmethyl)-4-methoxypiperidin-1-yl]-N-[(4-{[(2R)-4-(dimethylamino)-1-(phenylsulfanyl)butan-2-yl]amino}-3-nitrobenzene)sulfonyl]benzamide], the EC50 in test [1] amounted to 320 nM; in test [2], 200 nM.

With `CN(C)CC[C@H](CSc1ccccc1)Nc1ccc(S(=O)(=O)NC(=O)c2ccc(N3CCC(=Cc4ccc(Cl)cc4)CC3)cc2)cc1[N+](=O)[O-]` [4-{4-[(4-chlorophenyl)methylidene]piperidin-1-yl}-N-[(4-{[(2R)-4-(dimethylamino)-1-(phenylsulfanyl)butan-2-yl]amino}-3-nitrobenzene)sulfonyl]benzamide], the EC50 in test [1] was 620 nM; in test [2], 1180 nM.

Regarding `COC1(Cc2ccccc2)CCN(c2ccc(C(=O)NS(=O)(=O)c3ccc(N[C@H](CCN(C)C)CSc4ccccc4)c([N+](=O)[O-])c3)cc2)CC1` [4-(4-benzyl-4-methoxypiperidin-1-yl)-N-[(4-{[(2R)-4-(dimethylamino)-1-(phenylsulfanyl)butan-2-yl]amino}-3-nitrobenzene)sulfonyl]benzamide], the EC50 is 680 nM in test [1] and 930 nM in test [2].

As for `CN(C)CC[C@H](CSc1ccccc1)Nc1ccc(S(=O)(=O)NC(=O)c2ccc(N3CCC(=Cc4ccccc4C#N)CC3)cc2)cc1[N+](=O)[O-]` [4-{4-[(2-cyanophenyl)methylidene]piperidin-1-yl}-N-[(4-{[(2R)-4-(dimethylamino)-1-(phenylsulfanyl)butan-2-yl]amino}-3-nitrobenzene)sulfonyl]benzamide], the EC50 was found to be 1100 nM in test [1] and 1600 nM in test [2].

For the compound `COC1(CC(C)(C)C)CCN(c2ccc(C(=O)NS(=O)(=O)c3ccc(N[C@H](CCN(C)C)CSc4ccccc4)c([N+](=O)[O-])c3)cc2)CC1` [N-[(4-{[(2R)-4-(dimethylamino)-1-(phenylsulfanyl)butan-2-yl]amino}-3-nitrobenzene)sulfonyl]-4-[4-(2,2-dimethylpropyl)-4-methoxypiperidin-1-yl]benzamide], the EC50 in test [1] amounted to 750 nM; in test [2], 1000 nM.

`COc1ccccc1CC1(OC)CCN(c2ccc(C(=O)NS(=O)(=O)c3ccc(N[C@H](CCN(C)C)CSc4ccccc4)c([N+](=O)[O-])c3)cc2)CC1` [N-[(4-{[(2R)-4-(dimethylamino)-1-(phenylsulfanyl)butan-2-yl]amino}-3-nitrobenzene)sulfonyl]-4-{4-methoxy-4-[(2-methoxyphenyl)methyl]piperidin-1-yl}benzamide]: the results for the EC50 in test [1] and in test [2] were 150 nM and 250 nM, respectively.

As for `COC1(Cc2ccccc2Cl)CCN(c2ccc(C(=O)NS(=O)(=O)c3ccc(N[C@H](CCN(C)C)CSc4ccccc4)c([N+](=O)[O-])c3)cc2)CC1` [4-{4-[(2-chlorophenyl)methyl]-4-methoxypiperidin-1-yl}-N-[(4-{[(2R)-4-(dimethylamino)-1-(phenylsulfanyl)butan-2-yl]amino}-3-nitrobenzene)sulfonyl]benzamide], the EC50 turned out to be 230 nM in test [1] and 180 nM in test [2].

For `COC1(Cc2ccc(-c3ccccc3)cc2)CCN(c2ccc(C(=O)NS(=O)(=O)c3ccc(N[C@H](CCN(C)C)CSc4ccccc4)c([N+](=O)[O-])c3)cc2)CC1` [N-[(4-{[(2R)-4-(dimethylamino)-1-(phenylsulfanyl)butan-2-yl]amino}-3-nitrobenzene)sulfonyl]-4-{4-methoxy-4-[(4-phenylphenyl)methyl]piperidin-1-yl}benzamide], the results for the EC50 in test [1] and in test [2] were 600 nM and 1100 nM, respectively.

Regarding `CN(C)CC[C@H](CSc1ccccc1)Nc1ccc(S(=O)(=O)NC(=O)c2ccc(N3CCC(=Cc4ccc(C(F)(F)F)cc4)CC3)cc2)cc1[N+](=O)[O-]` [N-[(4-{[(2R)-4-(dimethylamino)-1-(phenylsulfanyl)butan-2-yl]amino}-3-nitrobenzene)sulfonyl]-4-(4-{[4-(trifluoromethyl)phenyl]methylidene}piperidin-1-yl)benzamide], the concentration for a half-maximal effect (EC50) was found to be 2600 nM in test [1] and 3600 nM in test [2].

For `COC1(Cc2ccccc2C)CCN(c2ccc(C(=O)NS(=O)(=O)c3ccc(N[C@H](CCN(C)C)CSc4ccccc4)c([N+](=O)[O-])c3)cc2)CC1` [N-[(4-{[(2R)-4-(dimethylamino)-1-(phenylsulfanyl)butan-2-yl]amino}-3-nitrobenzene)sulfonyl]-4-{4-methoxy-4-[(2-methylphenyl)methyl]piperidin-1-yl}benzamide], the results for the EC50 in test [1] and in test [2] were 150 nM and 200 nM, respectively.

Regarding `CN(C)CC[C@H](CSc1ccccc1)Nc1ccc(S(=O)(=O)NC(=O)c2ccc(N3CCC(=Cc4ccccc4Cl)CC3)cc2)cc1[N+](=O)[O-]` [4-{4-[(2-chlorophenyl)methylidene]piperidin-1-yl}-N-[(4-{[(2R)-4-(dimethylamino)-1-(phenylsulfanyl)butan-2-yl]amino}-3-nitrobenzene)sulfonyl]benzamide], the EC50 in test [1] is 350 nM; in test [2], 450 nM.

As to `COC1(Cc2ccccc2-c2ccccc2)CCN(c2ccc(C(=O)NS(=O)(=O)c3ccc(N[C@H](CCN(C)C)CSc4ccccc4)c([N+](=O)[O-])c3)cc2)CC1` [N-[(4-{[(2R)-4-(dimethylamino)-1-(phenylsulfanyl)butan-2-yl]amino}-3-nitrobenzene)sulfonyl]-4-{4-methoxy-4-[(2-phenylphenyl)methyl]piperidin-1-yl}benzamide], the EC50 in test [1] stood at 35 nM; in test [2] it was 20 nM.

With `COC1(Cc2ccccc2F)CCN(c2ccc(C(=O)NS(=O)(=O)c3ccc(N[C@H](CCN(C)C)CSc4ccccc4)c([N+](=O)[O-])c3)cc2)CC1` [N-[(4-{[(2R)-4-(dimethylamino)-1-(phenylsulfanyl)butan-2-yl]amino}-3-nitrobenzene)sulfonyl]-4-{4-[(2-fluorophenyl)methyl]-4-methoxypiperidin-1-yl}benzamide], the EC50 in test [1] is 180 nM; in test [2] it was 100 nM.

For the compound `COc1ccccc1C=C1CCN(c2ccc(C(=O)NS(=O)(=O)c3ccc(N[C@H](CCN(C)C)CSc4ccccc4)c([N+](=O)[O-])c3)cc2)CC1` [N-[(4-{[(2R)-4-(dimethylamino)-1-(phenylsulfanyl)butan-2-yl]amino}-3-nitrobenzene)sulfonyl]-4-{4-[(2-methoxyphenyl)methylidene]piperidin-1-yl}benzamide], the results for the EC50 in test [1] and in test [2] were 300 nM and 250 nM, respectively.

The compound `CN(C)CC[C@H](CSc1ccccc1)Nc1ccc(S(=O)(=O)NC(=O)c2ccc(N3CCC(C)(C)CC3)cc2)cc1[N+](=O)[O-]` [N-[(4-{[(2R)-4-(dimethylamino)-1-(phenylsulfanyl)butan-2-yl]amino}-3-nitrobenzene)sulfonyl]-4-(4,4-dimethylpiperidin-1-yl)benzamide] returned an EC50 in test [2] of 2200 nM.

Consider `CN(C)CC[C@H](CSc1ccccc1)Nc1ccc(S(=O)(=O)NC(=O)c2ccc(N3CCN(Cc4ccccc4)CC3)cc2)cc1[N+](=O)[O-]` [4-(4-benzylpiperazin-1-yl)-N-[(4-{[(2R)-4-(dimethylamino)-1-(phenylsulfanyl)butan-2-yl]amino}-3-nitrobenzene)sulfonyl]benzamide], for which the results for the EC50 in test [2] and in test [2] (pH 7.4) were 1700 nM and 1100 nM, respectively.

As for `CN(C)CC[C@H](CSc1ccccc1)Nc1ccc(S(=O)(=O)NC(=O)c2ccc(N3CCC(=Cc4ccccn4)CC3)cc2)cc1[N+](=O)[O-]` [N-[(4-{[(2R)-4-(dimethylamino)-1-(phenylsulfanyl)butan-2-yl]amino}-3-nitrobenzene)sulfonyl]-4-[4-(pyridin-2-ylmethylidene)piperidin-1-yl]benzamide], in test [2], the EC50 is 550 nM and 1380 nM.

Turning to `CN(C)CC[C@H](CSc1ccccc1)Nc1ccc(S(=O)(=O)NC(=O)c2ccc(N3CCN(C(=O)c4ccccc4)CC3)cc2)cc1[N+](=O)[O-]` [4-(4-benzoylpiperazin-1-yl)-N-[(4-{[(2R)-4-(dimethylamino)-1-(phenylsulfanyl)butan-2-yl]amino}-3-nitrobenzene)sulfonyl]benzamide], the EC50 in test [2] is over 50000 nM; in test [2] (pH 7.4) it was 14600 nM.
